Paper PMC8697972, “New Auranofin Analogs with Antibacterial Properties against Burkholderia Clinical Isolates” (Antibiotics, 2021)
≈ marks a conversion by molar mass, not a printed value. Read-outs that look alike come from different tables or passages of the source.

Key:
[1] = system: B. contaminans FFH-4004; type: cell-based, Burkholderia contaminans
[2] = system: B. ubonensis LMG 20358; type: cell-based, Burkholderia ubonensis
[3] = system: B. cenocepacia K56-2; type: cell-based, Burkholderia cenocepacia; settings: 18 h
[4] = system: B. cenocepacia 140485; type: cell-based, Burkholderia cenocepacia
[5] = system: B. contaminans MF16; type: cell-based, Burkholderia contaminans
[6] = system: B. lata BCC6; type: cell-based, Burkholderia lata
[7] = system: B. dolosa CEP021; type: cell-based, Burkholderia dolosa
[8] = system: B. multivorans ATCC17616; type: cell-based, Burkholderia multivorans
[9] = system: B. contaminans FFH-2050MA; type: cell-based, Burkholderia contaminans
[10] = system: B. cenocepacia K56-2 persister cells; test: Time kill of persister cells generated with ciprofloxacin; type: cell-based, Burkholderia cenocepacia; settings: in PBS, 3 h; MS-40S/MS-40 2× and 4× MIC, ciprofloxacin 5× MIC
[11] = system: B. cenocepacia K56-2; test: Persister frequency assay; settings: 24 h
[12] = system: C. elegans DH26; settings: for Percent survival of C. elegans: 24 h; for Survival100/MIC Ratio: highest concentration with 100 percent survival divided by the compound's MIC
[13] = B. cenocepacia K56-2, CAMHB, 37 °C
[14] = Burkholderia contaminans, FFH4004
[15] = Burkholderia ubonensis, LMG20358
[16] = Burkholderia cenocepacia, 140485
[17] = Burkholderia multivorans, ATCC17616
[18] = Burkholderia contaminans, FFH2050MA

C[P+](C)(C)[Au-][S]CCCO [WB-19-HL4172]
MIC ([1]; B. contaminans FFH-4004): 32 µg/mL
MIC ([2]; B. ubonensis LMG 20358): 32 µg/mL
MIC [3, 13]: 32 µg/mL
MIC ([4]; B. cenocepacia 140485): 32 µg/mL
MIC ([5]; B. contaminans MF16): 32 µg/mL
MIC ([6]; B. lata BCC6): 16 µg/mL
MIC ([7]; B. dolosa CEP021): 32 µg/mL
MIC ([8]; B. multivorans ATCC17616): 32 µg/mL
MIC ([9]; B. contaminans FFH-2050MA): 16 µg/mL

CC[P+](CC)(CC)[Au-][S]C1OC(CO)C(O)C(O)C1O (mixture of isomers) [WB-16-EO9899]
MIC ([1]; B. contaminans FFH-4004): > 128 µg/mL
MIC ([2]; B. ubonensis LMG 20358): > 128 µg/mL
MIC [3, 13]: > 128 µg/mL
MIC ([4]; B. cenocepacia 140485): 32 µg/mL
MIC ([5]; B. contaminans MF16): 128 µg/mL
MIC ([6]; B. lata BCC6): 128 µg/mL
MIC ([7]; B. dolosa CEP021): > 128 µg/mL
MIC ([8]; B. multivorans ATCC17616): 128 µg/mL
MIC ([9]; B. contaminans FFH-2050MA): 128 µg/mL

CC(C)(O/N=C(\C(=O)N[C@@H]1C(=O)N2C(C(=O)[O-])=C(C[n+]3ccccc3)CS[C@H]12)c1csc(N)n1)C(=O)O [CAZ, ceftazidime, reference compound]
MIC [1, 14]: 8 µg/mL (≈ 14.6 µM)
MIC [2, 15]: 16 µg/mL (≈ 29.3 µM)
MIC ([3]; Burkholderia cenocepacia): 32 µg/mL (≈ 58.5 µM)
MIC [4, 16]: 8 µg/mL (≈ 14.6 µM)
MIC ([5]; Burkholderia contaminans, MF16): 32 µg/mL (≈ 58.5 µM)
MIC ([6]; Burkholderia lata, BCC6): 64 µg/mL (≈ 117 µM)
MIC ([7]; Burkholderia dolosa, CEP021): 16 µg/mL (≈ 29.3 µM)
MIC [8, 17]: 16 µg/mL (≈ 29.3 µM)
MIC [9, 18]: 8 µg/mL (≈ 14.6 µM)

O=C(O)c1cn(C2CC2)c2cc(N3CCNCC3)c(F)cc2c1=O [ciprofloxacin, reference compound]
killing of ciprofloxacin-generated persister cells [10]: not killed

C[C@@H](O)[C@H]1C(=O)N2C(C(=O)O)=C(S[C@@H]3CN[C@H](C(=O)N(C)C)C3)[C@H](C)[C@H]12 [MEM, meropenem, reference compound]
MIC [1, 14]: 8 µg/mL (≈ 20.9 µM)
MIC [2, 15]: 16 µg/mL (≈ 41.7 µM)
MIC ([3]; Burkholderia cenocepacia): 16 µg/mL (≈ 41.7 µM)
MIC [4, 16]: 16 µg/mL (≈ 41.7 µM)
MIC ([5]; Burkholderia contaminans, MF16): 8 µg/mL (≈ 20.9 µM)
persister frequency (percent survival) ([11]; 5× MIC): low amount of persisters
persister frequency (percent survival) ([11]; 10× MIC): low amount of persisters
persister frequency (percent survival) ([11]; 5× and 10× MIC tested, concentration not told apart): 5–7%
Percent survival of C. elegans ([12]; 4 μg/mL): 100%
Percent survival of C. elegans ([12]; 8 μg/mL): 100%
Percent survival of C. elegans ([12]; 16 μg/mL): 100%
Percent survival of C. elegans ([12]; 32 μg/mL): 100%
Percent survival of C. elegans ([12]; 64 μg/mL): 100%
Percent survival of C. elegans ([12]; 128 μg/mL): 97.4%
Percent survival of C. elegans ([12]; 256 μg/mL): 93.2%
Survival100/MIC Ratio [12]: 4
Survival100/MIC Ratio ([12]; listed as meropenem): four
MIC ([6]; Burkholderia lata, BCC6): 4 µg/mL (≈ 10.4 µM)
MIC ([7]; Burkholderia dolosa, CEP021): 8 µg/mL (≈ 20.9 µM)
MIC [8, 17]: 4 µg/mL (≈ 10.4 µM)
MIC [9, 18]: 4 µg/mL (≈ 10.4 µM)

CC(=O)OC[C@H]1O[C@@H]([S][Au-][P+](C)(C)C)[C@H](OC(C)=O)[C@@H](OC(C)=O)[C@@H]1OC(C)=O [WB-19-HG5899]
MIC ([1]; B. contaminans FFH-4004): 128 µg/mL
MIC ([2]; B. ubonensis LMG 20358): 128 µg/mL
MIC [3, 13]: > 128 µg/mL
MIC ([4]; B. cenocepacia 140485): 128 µg/mL
MIC ([5]; B. contaminans MF16): 128 µg/mL
MIC ([6]; B. lata BCC6): 128 µg/mL
MIC ([7]; B. dolosa CEP021): > 128 µg/mL
MIC ([8]; B. multivorans ATCC17616): 128 µg/mL
MIC ([9]; B. contaminans FFH-2050MA): 64 µg/mL

CC[P+](CC)(CC)[Au-][S][C@@H]1O[C@H](CO)[C@@H](O)[C@H](O)[C@H]1O [WB-18-FI3683]
MIC ([1]; B. contaminans FFH-4004): > 128 µg/mL
MIC ([2]; B. ubonensis LMG 20358): > 128 µg/mL
MIC [3, 13]: > 128 µg/mL
MIC ([4]; B. cenocepacia 140485): 64 µg/mL
MIC ([5]; B. contaminans MF16): 128 µg/mL
MIC ([6]; B. lata BCC6): 128 µg/mL
MIC ([7]; B. dolosa CEP021): > 128 µg/mL
MIC ([8]; B. multivorans ATCC17616): 128 µg/mL
MIC ([9]; B. contaminans FFH-2050MA): 128 µg/mL

CP(C)C.CP(C)C.F[P-](F)(F)(F)(F)F.[Au+] [WB-19-HL4121a]
MIC ([1]; B. contaminans FFH-4004): 64 µg/mL
MIC ([2]; B. ubonensis LMG 20358): 128 µg/mL
MIC [3, 13]: 128 µg/mL
MIC ([4]; B. cenocepacia 140485): 32 µg/mL
MIC ([5]; B. contaminans MF16): 32 µg/mL
MIC ([6]; B. lata BCC6): 32 µg/mL
MIC ([7]; B. dolosa CEP021): 128 µg/mL
MIC ([8]; B. multivorans ATCC17616): 64 µg/mL
MIC ([9]; B. contaminans FFH-2050MA): 32 µg/mL

C[P+](C)(C)[Au-][S]CCN [WB-19-HL4181]
MIC ([1]; B. contaminans FFH-4004): 32 µg/mL
MIC ([2]; B. ubonensis LMG 20358): 32 µg/mL
MIC [3, 13]: 32 µg/mL
MIC ([4]; B. cenocepacia 140485): 32 µg/mL
MIC ([5]; B. contaminans MF16): 64 µg/mL
MIC ([6]; B. lata BCC6): 16 µg/mL
MIC ([7]; B. dolosa CEP021): 64 µg/mL
MIC ([8]; B. multivorans ATCC17616): 32 µg/mL
MIC ([9]; B. contaminans FFH-2050MA): 32 µg/mL

NC[C@H]1O[C@H](O[C@H]2[C@H](O)[C@@H](O[C@H]3O[C@H](CO)[C@@H](O)[C@H](N)[C@H]3O)[C@H](N)C[C@@H]2N)[C@H](N)C[C@@H]1O [TOB, tobramycin, reference compound]
MIC [1, 14]: 64 µg/mL (≈ 137 µM)
MIC [2, 15]: 128 µg/mL (≈ 274 µM)
MIC ([3]; Burkholderia cenocepacia): 512 µg/mL (≈ 1100 µM)
MIC [4, 16]: 128 µg/mL (≈ 274 µM)
MIC ([5]; Burkholderia contaminans, MF16): 32 µg/mL (≈ 68.4 µM)
MIC ([6]; Burkholderia lata, BCC6): 128 µg/mL (≈ 274 µM)
MIC ([7]; Burkholderia dolosa, CEP021): 128 µg/mL (≈ 274 µM)
MIC [8, 17]: 64 µg/mL (≈ 137 µM)
MIC [9, 18]: 128 µg/mL (≈ 274 µM)

C[P+](C)(C)[Au-][S]CC(O)CO (racemic) [WB-19-HL4171]
MIC ([1]; B. contaminans FFH-4004): 32 µg/mL
MIC ([2]; B. ubonensis LMG 20358): >128 µg/mL
MIC [3, 13]: 32 µg/mL
MIC ([4]; B. cenocepacia 140485): 16 µg/mL
MIC ([5]; B. contaminans MF16): 64 µg/mL
MIC ([6]; B. lata BCC6): 32 µg/mL
MIC ([7]; B. dolosa CEP021): 64 µg/mL
MIC ([8]; B. multivorans ATCC17616): 32 µg/mL
MIC ([9]; B. contaminans FFH-2050MA): 32 µg/mL

CC(=O)N[C@@H]1[C@@H](O)[C@H](O)[C@@H](CO)O[C@H]1[S][Au-][P+](C)(C)C [WB-19-HB2664]
MIC ([1]; B. contaminans FFH-4004): 128 µg/mL
MIC ([2]; B. ubonensis LMG 20358): 128 µg/mL
MIC [3, 13]: > 128 µg/mL
MIC ([4]; B. cenocepacia 140485): 128 µg/mL
MIC ([5]; B. contaminans MF16): 128 µg/mL
MIC ([6]; B. lata BCC6): 128 µg/mL
MIC ([7]; B. dolosa CEP021): > 128 µg/mL
MIC ([8]; B. multivorans ATCC17616): 128 µg/mL
MIC ([9]; B. contaminans FFH-2050MA): 64 µg/mL
